US20240182465A1 (GENFLEET THERAPEUTICS (SHANGHAI) INC., priority 2021, published 2024)
Structures can show the parent of a compound that is named as a salt.

Tests used:
[1] = molecular target: T1, HPK1 (Homo sapiens, UniProt Q92918); assay: HPK1 kinase activity assay (ADP-Glo); details: HPK1 Kinase activity IC50 (nM), 1 nM HPK1, 10 μM ATP, 0.1 μg/μL MBP
T1 sequence (Q92918 1-346 limits assumed): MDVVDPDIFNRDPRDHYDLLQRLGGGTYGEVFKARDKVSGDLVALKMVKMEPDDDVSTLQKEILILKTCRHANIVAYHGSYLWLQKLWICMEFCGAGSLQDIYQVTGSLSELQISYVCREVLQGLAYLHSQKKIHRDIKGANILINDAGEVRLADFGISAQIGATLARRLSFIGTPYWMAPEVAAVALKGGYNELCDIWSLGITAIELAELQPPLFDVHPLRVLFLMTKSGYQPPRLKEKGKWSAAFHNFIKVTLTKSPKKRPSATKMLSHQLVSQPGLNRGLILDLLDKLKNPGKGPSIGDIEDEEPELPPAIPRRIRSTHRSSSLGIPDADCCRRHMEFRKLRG

[2] = molecular target: HPK1 (Homo sapiens, UniProt Q92918); assay: SLP76 phosphorylation assay (intracellular HPK1 inhibitory activity, p-SLP76 Ser376 sandwich ELISA); details: p-SLP76 IC50(nM), Jurkat, Clone E6-1 cells; 1 h compound pre-incubation, anti-CD3 beads stimulation 20 min; SLP76 phosphorylation at S376
Target sequence in this assay (Q92918 whole entry): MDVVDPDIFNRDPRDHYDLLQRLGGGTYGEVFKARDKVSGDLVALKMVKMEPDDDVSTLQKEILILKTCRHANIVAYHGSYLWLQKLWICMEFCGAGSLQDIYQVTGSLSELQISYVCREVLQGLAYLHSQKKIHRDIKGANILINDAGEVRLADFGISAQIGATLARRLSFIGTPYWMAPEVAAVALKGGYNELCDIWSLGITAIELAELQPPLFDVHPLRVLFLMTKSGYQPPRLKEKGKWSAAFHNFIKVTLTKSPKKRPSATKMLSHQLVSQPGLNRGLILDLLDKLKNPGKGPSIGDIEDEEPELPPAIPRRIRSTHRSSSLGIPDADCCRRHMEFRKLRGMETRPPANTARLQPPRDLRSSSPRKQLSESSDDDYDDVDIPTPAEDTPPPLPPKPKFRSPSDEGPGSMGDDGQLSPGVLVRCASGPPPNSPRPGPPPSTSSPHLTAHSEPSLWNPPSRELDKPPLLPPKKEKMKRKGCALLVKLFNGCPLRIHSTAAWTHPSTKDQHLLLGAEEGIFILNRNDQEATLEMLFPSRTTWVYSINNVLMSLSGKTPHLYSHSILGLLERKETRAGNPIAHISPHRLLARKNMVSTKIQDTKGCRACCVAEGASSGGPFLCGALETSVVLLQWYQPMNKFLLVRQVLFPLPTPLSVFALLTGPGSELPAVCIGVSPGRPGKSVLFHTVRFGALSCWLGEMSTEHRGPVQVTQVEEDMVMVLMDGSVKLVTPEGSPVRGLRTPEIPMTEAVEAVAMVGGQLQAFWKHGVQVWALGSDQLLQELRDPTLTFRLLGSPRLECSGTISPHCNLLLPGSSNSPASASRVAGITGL

SMILES	IC50 [1] [nM]	IC50 [2] [nM]
Cc1c[nH]c2ncc(-c3cc4c(c(C5COC(N)=N5)c3)COCC4)cc12 (centres unmarked) [Compound Z243, 4-[6-(3-methyl-1H-pyrrolo[2,3-b]pyridin-5-yl)isochroman-8-yl]-4,5-dihydrooxazol-2-amine]	16.5	2510
Cc1c[nH]c2ncc(-c3cc4c(c(CN5CCCC5)c3)COCC4)cc12 [Compound Z109, 3-methyl-5-(8-(pyrrolidin-1-ylmethyl)isochroman-6-yl)-1H-pyrrolo[2,3-b]pyridine]	9.78	1060
Cc1c[nH]c2ncc(-c3cc4c(c([C@@H]5CCCN5)c3)CCN(C(=O)[C@](C)(O)C(F)(F)F)C4)cc12 [Compound Z285-1, (S)-3,3,3-trifluoro-2-hydroxy-2-methyl-1-(7-(3-methyl-1H-pyrrolo[2,3-b]pyridin-5-yl)-5-((S)-pyrrolidin-2-yl)-3,4-dihydroisoquinolin-2(1H)-yl)propan-1-one]	0.87	239
Cc1c[nH]c2ncc(-c3cc4c(c([C@@H]5CCCN5)c3)CN(CC(F)(F)F)CC4)cc12 [Compound Z131, (S)-6-(3-methyl-1H-pyrrolo[2,3-b]pyridin-5-yl)-8-(pyrrolidin-2-yl)-2-(2,2,2-trifluoroethyl)-1,2,3,4-tetrahydroisoquinoline]	7.54	664
Cc1c[nH]c2ncc(-c3cc4c(c([C@@H]5CCCN5)c3)CN(S(=O)(=O)C3CC3)CC4)cc12 [Compound Z251, (S)-2-(cyclopropylsulfonyl)-6-(3-methyl-1H-pyrrolo[2,3-b]pyridin-5-yl)-8-(pyrrolidin-2-yl)-1,2,3,4-tetrahydroisoquinoline]	0.49	131
O=C1OCc2ccc(-c3c[nH]c4ncc(-c5cc6c(c([C@@H]7CCCN7)c5)COCC6)cc34)cc21 [Compound Z365, (S)-6-(5-(8-(pyrrolidin-2-yl)isochroman-6-yl)-1H-pyrrolo[2,3-b]pyridin-3-yl)isobenzofuran-1(3H)-one]	0.97	315
Cc1c[nH]c2ncc(-c3cc4c(c([C@@H]5CCCN5)c3)CN(C(=O)c3cnc(C5CC5)nc3)CC4)cc12 [Compound Z351, (S)-(2-cyclopropylpyrimidin-5-yl)(6-(3-methyl-1H-pyrrolo[2,3-b]pyridin-5-yl)-8-(pyrrolidin-2-yl)-3,4-dihydroisoquinolin-2(1H)-yl)methanone]	0.87	126
Cc1c[nH]c2ncc(-c3cc4c(c([C@@H]5COCCN5)c3)CN(C(=O)[C@@](C)(O)C(F)(F)F)CC4)cc12 [Compound Z317, (R)-3,3,3-trifluoro-2-hydroxy-2-methyl-1-[6-(3-methyl-1H-pyrrolo[2,3-b]pyridin-5-yl)-8-[(R)-morpholin-3-yl]-3,4-dihydroisoquinolin-2(1H)-yl]propan-1-one]	0.88	200
Cc1c[nH]c2ncc(-c3cc4c(c([C@@H]5CCCN5)c3)CN(C(=O)c3ccncc3)CC4)cc12 [Compound Z124, (S)-(6-(3-methyl-1H-pyrrolo[2,3-b]pyridin-5-yl)-8-(pyrrolidin-2-yl)-3,4-dihydroisoquinolin-2(1H)-yl) (pyridin-4-yl)methanone]	0.33	260
CO[C@@H]1CCN(C(=O)N2CCc3cc(-c4cnc5[nH]cc(C)c5c4)cc([C@@H]4CCCN4)c3C2)C1 [Compound Z357-2, ((R)-3-methoxypyrrolidin-1-yl)(6-(3-methyl-1H-pyrrolo[2,3-b]pyridin-5-yl)-8-((S)-pyrrolidin-2-yl)-3,4-dihydroisoquinolin-2(1H)-yl)methanone]	0.26	80.7
COCc1cc(N2CCc3cc(-c4cnc5[nH]cc(C)c5c4)cc([C@@H]4CCCN4)c3C2)ccn1 [Compound Z247, (S)-2-(2-(methoxymethyl)pyridin-4-yl)-6-(3-methyl-1H-pyrrolo[2,3-b]pyridin-5-yl)-8-(pyrrolidin-2-yl)-1,2,3,4-tetrahydroisoquinoline]	0.61	151
Cc1ccncc1C#Cc1c[nH]c2ncc(-c3cc4c(c([C@@H]5CCCN5)c3)COCC4)cc12 [Compound Z237, (S)-3-((4-methylpyridin-3-yl)ethynyl)-5-(8-(pyrrolidin-2-yl)isochroman-6-yl)-1H-pyrrolo[2,3-b]pyridine]	0.71	100
Cc1ncc(C(=O)N2CCc3cc(-c4cnc5[nH]cc(C)c5c4)cc([C@@H]4CCCN4)c3C2)c(C(F)(F)F)n1 [Compound Z349, (S)-(6-(3-methyl-1H-pyrrolo[2,3-b]pyridin-5-yl)-8-(pyrrolidin-2-yl)-3,4-dihydroisoquinolin-2(1H)-yl) (2-methyl-4-(trifluoromethyl)pyrimidin-5-yl)methanone]	0.47	240

Second part, the molecule after the results:

IC50 [1] [nM]	IC50 [2] [nM]	SMILES
5.81	815	Cc1c[nH]c2ncc(-c3cc4c(c(CNC(C)C)c3)COCC4)cc12 [Compound Z111, N-((6-(3-methyl-1H-pyrrolo[2,3-b]pyridin-5-yl)isochroman-8-yl)methyl)propan-2-amine]
1.62	439	Nc1ncc(-c2cc3c(c(C4CCCN4)c2)COCC3)cc1-c1cn[nH]c1 (centres unmarked) [Compound Z93, 3-(1H-pyrazol-4-yl)-5-(8-(pyrrolidin-2-yl)isochroman-6-yl)pyridin-2-amine formate]
0.47	88.4	Cc1c[nH]c2ncc(-c3cc4c(c([C@@H]5CCCN5)c3)CCN(C(=O)C3CCOCC3)C4)cc12 [Compound Z312, (S)-1-[7-(3-methyl-1H-pyrrolo[2,3-b]pyridin-5-yl)-5-[pyrrolidin-2-yl]-3,4-dihydroisoquinolin-2(1H)-yl](tetrahydro-2H-pyran-4-yl)methanone]
1.27	215	Cc1c[nH]c2ncc(-c3cc4c(c([C@@H]5CCCN5)c3)CN(C(=O)c3ccncn3)CC4)cc12 [Compound Z221, (S)-(6-(3-methyl-1H-pyrrolo[2,3-b]pyridin-5-yl)-8-(pyrrolidin-2-yl)-3,4-dihydroisoquinolin-2(1H)-yl) (pyrimidin-4-yl)methanone]
0.6	162	Cc1c[nH]c2ncc(-c3cc4c(c([C@@H]5CCCN5)c3)CN(c3ccncc3)CC4)cc12 [Compound Z291, (S)-6-(3-methyl-1H-pyrrolo[2,3-b]pyridin-5-yl)-2-(pyridin-4-yl)-8-(pyrrolidin-2-yl)-1,2,3,4-tetrahydroisoquinoline]
1.89	494	N#Cc1c[nH]c2ncc(-c3cc4c(c([C@@H]5CCCN5)c3)COCC4)cc12 [Compound Z190, (S)-5-(8-(pyrrolidin-2-yl)isochroman-6-yl)-1H-pyrrolo[2,3-b]pyridine-3-carbonitrile]
231	> 10000	Cc1c[nH]c2ncc(-c3cc([C@@H]4CCCN4)c4cnccc4c3)cc12 (single isomer, unassigned) [Compound Z3-1]
0.4	177	Cc1cc(N2CCc3cc(-c4cnc5[nH]cc(C)c5c4)cc([C@@H]4CCCN4)c3C2)cc(C)n1 [Compound Z343, (S)-2-(2,6-dimethylpyridin-4-yl)-6-(3-methyl-1H-pyrrolo[2,3-b]pyridin-5-yl)-8-(pyrrolidin-2-yl)-1,2,3,4-tetrahydroisoquinoline]
0.46	276	Cc1c[nH]c2ncc(-c3cc4c(c([C@@H]5CCCN5)c3)COC3(CC3)C4)cc12 [Compound Z229, (S)-3-methyl-5-(8′-(pyrrolidin-2-yl)spiro[cyclopropane-1,3′-isochroman]-6′-yl)-1H-pyrrolo[2,3-b]pyridine]
1.52	386	COc1cc(N2CCc3cc(-c4cnc5[nH]cc(C)c5c4)cc([C@@H]4CCCN4)c3C2)ccn1 [Compound Z344, (S)-2-(2-methoxypyridin-4-yl)-6-(3-methyl-1H-pyrrolo[2,3-b]pyridin-5-yl)-8-(pyrrolidin-2-yl)-1,2,3,4-tetrahydroisoquinoline]
0.81	132	CCN1Cc2c(cc(-c3cnc4[nH]cc(C)c4c3)cc2[C@@H]2CCCN2)CC1=O [Compound Z138, (S)-2-ethyl-6-(3-methyl-1H-pyrrolo[2,3-b]pyridin-5-yl)-8-(pyrrolidin-2-yl)-1,4-dihydroisoquinolin-3(2H)-one]
1.54	358	CC(=O)N1CCc2cc(-c3cnc4[nH]cc(C)c4c3)cc(C3COCCN3)c2C1 (centres unmarked) [Compound Z119]
3.55	305	Cc1c[nH]c2ncc(-c3cc4c(c(CNCC5CC5)c3)COCC4)cc12 [Compound Z112, 1-cyclopropyl-N-((6-(3-methyl-11H-pyrrolo[2,3-b]pyridin-5-yl)isochroman-8-yl)methyl)methanamine]
0.48	279	Cc1c[nH]c2ncc(-c3cc4c(c([C@@H]5CCCN5)c3)CN(C(=O)OC3CC3)CC4)cc12 [Compound Z246, (S)-cyclopropyl 6-(3-methyl-1H-pyrrolo[2,3-b]pyridin-5-yl)-8-(pyrrolidin-2-yl)-3,4-dihydroisoquinoline-2(1H)-carboxylate]
1.43	301	Cc1c[nH]c2ncc(-c3cc4c(c([C@@H]5CCCN5)c3)CN(C(=O)C3CCCCC3)CC4)cc12 [Compound Z125]
